Assay [1] relates to NF-κB pathway, THP1-Dual™ cells. Kind of assay: STING reporter assay in THP1-Dual cells, NF-κB pathway (SEAP, QUANTI-Blue). In kind it is cell-based, human. The following applies: THP1-Dual cells, 10% human plasma, 20 hours, SEAP, 100% activation = 100 μM cGAMP, read-out: NFkB (EC50 μM). In a few lines: (§1)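 Activation normalised between DMSO-only baseline and 100 μM cGAMP maximum, after 20 h compound exposure (starting at 100 μM final) at 37° C, 5% CO2. Supernatant SEAP (QUANTI-Blue, OD620) reports NF-κB; secreted luciferase (QUANTI-Luc, RLU at 5 min) reports IRF.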

The test system of assay [2] is IRF pathway, THP1-Dual™ cells. Description: STING reporter assay in THP1-Dual cells, IRF pathway (Lucia luciferase, QUANTI-Luc). The following applies: THP1-Dual cells, 10% human plasma, 20 hours, Lucia luciferase, 100% activation = 100 μM cGAMP, read-out: IRF (EC50 μM). Format: cell-based, human. A digest of the protocol:
as §1

In patent US12673954B2 (BRISTOL-MYERS SQUIBB COMPANY, priority 2021, dated 2026) one finds EC50 data, which are given here for 29 molecules.

Read-outs that look alike come from different tables or passages of the source.

As to `Cc1cc(C(=O)O[C@@H](C)C(F)(F)F)c2oc(CNC(=O)c3cnn4cccnc34)c(Cl)c2c1` [EXAMPLE 301, (S)-1,1,1-Trifluoropropan-2-yl 3-chloro-5-methyl-2-((pyrazolo[1,5-a]pyrimidine-3-carboxamido)methyl)benzofuran-7-carboxylate], the concentration giving a half-maximal response (EC50) in assay [1] (Homo sapiens, THP1-Dual, 20 h) was found to be 2.7 µM; in assay [2] (Homo sapiens, THP1-Dual, 20 h), 2.1 µM.

As to `O=C(OC(CF)CF)c1cc(Cl)cc2cc(CNC(=O)c3cnn4cccnc34)oc12` [EXAMPLE 246, 1,3-Difluoropropan-2-yl 5-chloro-2-((pyrazolo[1,5-a]pyrimidine-3-carboxamido)methyl)benzofuran-7-carboxylate], the concentration for a half-maximal effect (EC50) in assay [1] (Homo sapiens, THP1-Dual, 20 h) is 1 µM; in assay [2] (Homo sapiens, THP1-Dual, 20 h), 1.1 µM.

On to `Cc1ccc2cc(CNC(=O)c3cnn4cccnc34)oc2c1C(=O)OCC(F)(F)F` [EXAMPLE 287, 2,2,2-Trifluoroethyl 6-methyl-2-((pyrazolo[1,5-a]pyrimidine-3-carboxamido)methyl)benzofuran-7-carboxylate], for which the EC50 in assay [1] (Homo sapiens, THP1-Dual, 20 h) amounted to 18 µM; in assay [2] (Homo sapiens, THP1-Dual, 20 h), 12 µM.

As for `CCc1cc(C(=O)OC)c2oc(CNC(=O)c3cnn4cccnc34)cc2c1` [EXAMPLE 101, Methyl 5-ethyl-2-((pyrazolo[1,5-a]pyrimidine-3-carboxamido)methyl)benzofuran-7-carboxylate], the EC50 in assay [1] (Homo sapiens, THP1-Dual, 20 h) came out at 10 µM; in assay [2] (Homo sapiens, THP1-Dual, 20 h), 12 µM.

With `O=C(OCC(F)(F)F)c1cc(F)cc2cc(CN3CCc4ccncc4C3=O)oc12` [EXAMPLE 228, 2,2,2-Trifluoroethyl 5-fluoro-2-((1-oxo-3,4-dihydro-2,7-naphthyridin-2(1H)-yl)methyl)benzofuran-7-carboxylate], the half-maximal effective concentration (EC50) came out at 6.5 µM in assay [1] (Homo sapiens, THP1-Dual, 20 h) and 6.1 µM in assay [2] (Homo sapiens, THP1-Dual, 20 h).

`O=C(OCC(F)(F)F)c1ccc(F)c2cc(CNC(=O)c3cnn4cccnc34)oc12` [EXAMPLE 355, 2,2,2-Trifluoroethyl 4-fluoro-2-((pyrazolo[1,5-a]pyrimidine-3-carboxamido)methyl)benzofuran-7-carboxylate]: the EC50 came out at 1.3 µM in assay [1] (Homo sapiens, THP1-Dual, 20 h) and 0.96 µM in assay [2] (Homo sapiens, THP1-Dual, 20 h).

In the case of `COC(=O)c1ccc(C)c2cc(Cn3cnc4ccncc4c3=O)oc12` [EXAMPLE 29, Methyl 4-methyl-2-((4-oxopyrido[4,3-d]pyrimidin-3(4H)-yl)methyl)benzofuran-7-carboxylate], the EC50 in assay [1] (Homo sapiens, THP1-Dual, 20 h) was 2.9 µM; in assay [2] (Homo sapiens, THP1-Dual, 20 h), 3 µM.

As for `O=C(OCC(F)(F)F)c1cc(F)cc2cc(Cn3ccc4ccncc4c3=O)oc12` [EXAMPLE 362, 2,2,2-Trifluoroethyl 5-fluoro-2-((1-oxo-2,7-naphthyridin-2(1H)-yl)methyl)benzofuran-7-carboxylate], the EC50 in assay [1] (Homo sapiens, THP1-Dual, 20 h) is 4.6 µM; in assay [2] (Homo sapiens, THP1-Dual, 20 h), 5.7 µM.

As to `CCOc1ncncc1C(=O)NCc1cc2cc(Cl)cc(C(=O)O[C@H](C)C(F)(F)F)c2o1` [EXAMPLE 263, (R)-1,1,1-trifluoropropan-2-yl 5-chloro-2-((4-ethoxypyrimidine-5-carboxamido)methyl)benzofuran-7-carboxylate], the concentration giving a half-maximal response (EC50) came to 5.2 µM in assay [1] (Homo sapiens, THP1-Dual, 20 h) and 4.8 µM in assay [2] (Homo sapiens, THP1-Dual, 20 h).

Consider `Cc1ccc(C(=O)OCC(F)(F)F)c2oc(Cn3cnc4ccncc4c3=O)cc12` [EXAMPLE 360], for which the concentration for a half-maximal effect (EC50) in assay [1] (Homo sapiens, THP1-Dual, 20 h) turned out to be 3.4 µM; in assay [2] (Homo sapiens, THP1-Dual, 20 h), 2.8 µM.

On to `CSC(=O)c1cc(F)cc2cc(CNC(=O)c3cnn4cccnc34)oc12` [EXAMPLE 382, S-Methyl 5-fluoro-2-((pyrazolo[1,5-a]pyrimidine-3-carboxamido)methyl)benzofuran-7-carbothioate], for which the EC50 worked out at 1.1 µM in assay [1] (Homo sapiens, THP1-Dual, 20 h) and 1.3 µM in assay [2] (Homo sapiens, THP1-Dual, 20 h).

For `COC(=O)c1ccc(C)c2cc(Cn3ccc4ccncc4c3=O)oc12` [EXAMPLE 32], the EC50 stood at 3.4 µM in assay [1] (Homo sapiens, THP1-Dual, 20 h) and 3.5 µM in assay [2] (Homo sapiens, THP1-Dual, 20 h).

Regarding `CSC(=O)c1cc(F)cc2c(Cl)c(CNC(=O)c3cnn4cccnc34)oc12` [EXAMPLE 393, S-Methyl 3-chloro-5-fluoro-2-((pyrazolo[1,5-a]pyrimidine-3-carboxamido)methyl)benzofuran-7-carbothioate], the EC50 was determined as 0.3 µM in assay [1] (Homo sapiens, THP1-Dual, 20 h) and 0.39 µM in assay [2] (Homo sapiens, THP1-Dual, 20 h).

Turning to `CCOC(OC(=O)c1cccc2cc(CN3CCc4ccncc4C3=O)oc12)C(F)(F)F` (racemic) [EXAMPLE 210, 1-Ethoxy-2,2,2-trifluoroethyl 2-((1-oxo-3,4-dihydro-2,7-naphthyridin-2(1H)-yl)methyl)benzofuran-7-carboxylate], the concentration for a half-maximal effect (EC50) was determined as 25 µM in assay [1] (Homo sapiens, THP1-Dual, 20 h) and 30 µM in assay [2] (Homo sapiens, THP1-Dual, 20 h).

Turning to `COC(=O)c1cc(Br)cc2cc(CN3Cc4ncncc4C3=O)oc12` [Example 83, Methyl 5-bromo-2-((5-oxo-5,7-dihydro-6H-pyrrolo[3,4-d]pyrimidin-6-yl)methyl)benzofuran-7-carboxylate], the EC50 in assay [1] (Homo sapiens, THP1-Dual, 20 h) was found to be 48 µM; in assay [2] (Homo sapiens, THP1-Dual, 20 h), 37 µM.

Turning to `CC(NC(=O)c1cnn2cccnc12)c1cc2cc(F)cc(C(=O)O[C@H](C)C(F)(F)F)c2o1` (stereo partly drawn) [EXAMPLE 325, (R)-1,1,1-Trifluoropropan-2-yl 5-fluoro-2-(1-(pyrazolo[1,5-a]pyrimidine-3-carboxamido)ethyl)benzofuran-7-carboxylate], the figures for the 50% effective concentration (EC50) in assay [1] and in assay [2] were 1.4 µM and 1.7 µM, respectively.

Regarding `CC(CC(F)(F)F)OC(=O)c1cc(Cl)cc2cc(CNC(=O)c3cnn4cccnc34)oc12` (single isomer, unassigned) [EXAMPLE 335, 4,4,4-Trifluorobutan-2-yl 5-chloro-2-((pyrazolo[1,5-a]pyrimidine-3-carboxamido)methyl)benzofuran-7-carboxylate], the half-maximal effective concentration (EC50) was 3.5 µM in assay [1] (Homo sapiens, THP1-Dual, 20 h) and 3.5 µM in assay [2] (Homo sapiens, THP1-Dual, 20 h).

For `Cc1cc(C(=O)OCC(F)(F)F)c2oc(CNC(=O)c3cnn4cccnc34)c(Cl)c2c1` [EXAMPLE 299, 2,2,2-Trifluoroethyl 3-chloro-5-methyl-2-((pyrazolo[1,5-a]pyrimidine-3-carboxamido)methyl)benzofuran-7-carboxylate], the EC50 in assay [1] (Homo sapiens, THP1-Dual, 20 h) amounted to 0.33 µM; in assay [2] (Homo sapiens, THP1-Dual, 20 h), 0.28 µM.

For `CC(OC(=O)c1cc(F)cc2cc(CNC(=O)c3cnc4cccnn34)oc12)C(F)(F)F` (single isomer, unassigned) [EXAMPLE 315, 1,1,1-Trifluoropropan-2-yl 5-fluoro-2-((imidazo[1,2-b]pyridazine-3-carboxamido)methyl)benzofuran-7-carboxylate], the EC50 in assay [1] is 1.9 µM; in assay [2], 2.1 µM.

As for `COC(=O)c1ccc(F)c2cc(CNC(=O)c3cnn4cccnc34)oc12` [EXAMPLE 23, methyl 4-fluoro-2-((pyrazolo[1,5-a]pyrimidine-3-carboxamido)methyl)-benzofuran-7-carboxylate], the EC50 in assay [1] (Homo sapiens, THP1-Dual, 20 h) came to 1.8 µM; in assay [2] (Homo sapiens, THP1-Dual, 20 h) it was 2 µM.

On to `COC(=O)c1cc(Cl)cc2cc(CNC(=O)c3cncc4[nH]cnc34)oc12` [Example 68, Methyl 2-((3H-imidazo[4,5-c]pyridine-7-carboxamido)methyl)-5-chlorobenzofuran-7-carboxylate], for which the EC50 in assay [1] (Homo sapiens, THP1-Dual, 20 h) was 2.1 µM; in assay [2] (Homo sapiens, THP1-Dual, 20 h), 1.7 µM.

As for `COC(=O)Cc1cc(Br)cc2cc(CNC(=O)c3cnn4cccnc34)oc12` [Example 84, Methyl 2-(5-bromo-2-((pyrazolo[1,5-a]pyrimidine-3-carboxamido)methyl)benzofuran-7-yl)acetate], the EC50 in assay [1] (Homo sapiens, THP1-Dual, 20 h) came to 27 µM; in assay [2] (Homo sapiens, THP1-Dual, 20 h) it was 30 µM.

Take `CC(OC(=O)c1ccc(Cl)c2cc(CNC(=O)c3cnn4cccnc34)oc12)C(F)(F)F` (stereo not shown) [EXAMPLE 312, 1,1,1-Trifluoropropan-2-yl 4-chloro-2-((pyrazolo[1,5-a]pyrimidine-3-carboxamido)methyl)benzofuran-7-carboxylate]: the values for the EC50 in assay [1] and in assay [2] were 56 µM and 21 µM, respectively.

On to `COC(=O)c1cc(F)cc2cc(CNC(=O)c3cnc4cccnn34)oc12` [EXAMPLE 41, Methyl 5-fluoro-2-((imidazo[1,2-b]pyridazine-3-carboxamido)methyl)benzofuran-7-carboxylate], for which the concentration for a half-maximal effect (EC50) was 1.3 µM in assay [1] (Homo sapiens, THP1-Dual, 20 h) and over 33 µM in assay [2] (Homo sapiens, THP1-Dual, 20 h).

As for `COC(=O)c1cc(C)cc2cc(Cn3cnc4ccncc4c3=O)oc12` [Example 86, Methyl 5-methyl-2-((4-oxopyrido[4,3-d]pyrimidin-3(4H)-yl)methyl)benzofuran-7-carboxylate], the half-maximal effective concentration (EC50) was found to be 1.8 µM in assay [1] (Homo sapiens, THP1-Dual, 20 h) and 1.7 µM in assay [2] (Homo sapiens, THP1-Dual, 20 h).

With `COC(=O)c1ccc(OC)c2cc(CNC(=O)c3cnn4cccnc34)oc12` [EXAMPLE 33, Methyl 4-methoxy-2-((pyrazolo[1,5-a]pyrimidine-3-carboxamido)methyl)benzofuran-7-carboxylate], the EC50 is 16 µM in assay [1] (Homo sapiens, THP1-Dual, 20 h) and 11 µM in assay [2] (Homo sapiens, THP1-Dual, 20 h).

For the molecule `COC(=O)c1cccc2cc(Cn3cccc(C#N)c3=O)oc12` [EXAMPLE 18, Methyl 2-((3-cyano-2-oxopyridin-1(2H)-yl)methyl)benzofuran-7-carboxylate], the half-maximal effective concentration (EC50) in assay [1] (Homo sapiens, THP1-Dual, 20 h) was 97 µM; in assay [2] (Homo sapiens, THP1-Dual, 20 h) it was 79 µM.

As to `COC(=O)c1cccc2cc(CNC(=O)c3cnn4cc(Cl)cnc34)oc12` [EXAMPLE 13, Methyl 2-((6-chloropyrazolo[1,5-a]pyrimidine-3-carboxamido)methyl) benzofuran-7-carboxylate], the concentration giving a half-maximal response (EC50) in assay [1] is 11 µM; in assay [2], 8.7 µM.

Take `CCOC(=O)OCOC(=O)c1cc(Cl)cc2cc(CNC(=O)c3cnn4cccnc34)oc12` [EXAMPLE 260, ((Ethoxycarbonyl)oxy)methyl 5-chloro-2-((pyrazolo[1,5-a]pyrimidine-3-carboxamido)methyl)benzofuran-7-carboxylate]: the concentration for a half-maximal effect (EC50) in assay [1] (Homo sapiens, THP1-Dual, 20 h) came out at 0.82 µM; in assay [2] (Homo sapiens, THP1-Dual, 20 h) it was 1 µM.
